According to ChEMBL document CHEMBL1201862, “PubChem BioAssay data set” (2004):
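Interpolation was linear, between the two tested concentrations surrounding the appropriate level; five concentrations were tested over 48 hours in 96-well plates. At the GI50, growth is halved.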 Activity calls are given as the source filed them. Rule as the data show it: active = GI50 up to about 1.1 µM and inactive = higher.

Experiments:
Assay in all cases: DTP human tumour cell line panel, 48 h
[1] = tested on: 786-0
[2] = tested on: ACHN
[3] = tested on: CAKI-1
[4] = tested on: CCRF-CEM
[5] = tested on: DU-145
[6] = tested on: HL-60
[7] = tested on: Hs-578T
[8] = tested on: IGROV-1
[9] = tested on: LOX IMVI
[10] = tested on: M14
[11] = tested on: NCI-H460
[12] = tested on: NCI-H522
[13] = tested on: OVCAR-4
[14] = tested on: OVCAR-5
[15] = tested on: OVCAR-8
[16] = tested on: RPMI-8226
[17] = tested on: SF-295
[18] = tested on: TK-10
[19] = tested on: UACC-257

Structure (SMILES)	GI50 [1]	GI50 [2]	GI50 [3]	GI50 [4]	GI50 [5]	GI50 [6]	GI50 [7]	GI50 [8]	GI50 [9]	GI50 [10]	GI50 [11]	GI50 [12]	GI50 [13]	GI50 [14]	GI50 [15]	GI50 [16]	GI50 [17]	GI50 [18]	GI50 [19]
CC/C(Cl)=N\OC(=O)Nc1ccc(F)cc1F	4.38 µM (inactive)	1.89 µM (inactive)	1.71 µM (inactive)	1.54 µM (inactive)	17.6 µM (inactive)	1.91 µM (inactive)	32.2 µM (inactive)	15.9 µM (inactive)	2.5 µM (inactive)	7.6 µM (inactive)	29.1 µM (inactive)	1.54 µM (inactive)	17.9 µM (inactive)	17.9 µM (inactive)	19.8 µM (inactive)	1.49 µM (inactive)	26.4 µM (inactive)	12 µM (inactive)	17.3 µM (inactive)
CCc1n[nH]c(=O)n1-c1ccncc1	> 100 µM (inactive)	> 100 µM (inactive)	> 100 µM (inactive)	> 100 µM (inactive)	> 100 µM (inactive)	> 100 µM (inactive)	> 100 µM (inactive)	> 100 µM (inactive)	> 100 µM (inactive)	> 100 µM (inactive)	> 100 µM (inactive)	> 100 µM (inactive)	> 100 µM (inactive)	> 100 µM (inactive)	> 100 µM (inactive)	> 100 µM (inactive)	> 100 µM (inactive)	> 100 µM (inactive)	> 100 µM (inactive)
Cc1ccc(O)c(C2=NNC(c3cccc(Br)c3)C2)c1 (stereo not given)	> 100 µM (inactive)	34.3 µM (inactive)	27.9 µM (inactive)	29.3 µM (inactive)	81.3 µM (inactive)	53.3 µM (inactive)	37.3 µM (inactive)	13 µM (inactive)	38.3 µM (inactive)	> 100 µM (inactive)	33.9 µM (inactive)	28.5 µM (inactive)	–	> 100 µM (inactive)	98.9 µM (inactive)	21.9 µM (inactive)	61 µM (inactive)	> 100 µM (inactive)	48.9 µM (inactive)
COC(=O)/C(C#N)=C(\Nc1ccccc1)N1CCCC1	> 100 µM (inactive)	> 100 µM (inactive)	> 100 µM (inactive)	–	> 100 µM (inactive)	> 100 µM (inactive)	> 100 µM (inactive)	> 100 µM (inactive)	> 100 µM (inactive)	> 100 µM (inactive)	> 100 µM (inactive)	> 100 µM (inactive)	> 100 µM (inactive)	> 100 µM (inactive)	> 100 µM (inactive)	> 100 µM (inactive)	> 100 µM (inactive)	> 100 µM (inactive)	> 100 µM (inactive)
Cc1nc2ccccc2c(=O)n1NC(=O)c1ccc(CS)cc1	11.5 µM (inactive)	10.9 µM (inactive)	–	0.82 µM (active)	28.1 µM (inactive)	2.7 µM (inactive)	16.6 µM (inactive)	8.59 µM (inactive)	0.145 µM (active)	12.2 µM (inactive)	19 µM (inactive)	12.3 µM (inactive)	15.1 µM (inactive)	34.5 µM (inactive)	20.8 µM (inactive)	11.1 µM (inactive)	25.8 µM (inactive)	> 10 µM (inactive)	20.4 µM (inactive)
c1ccc2nc3c(nc2c1)sc1ccccc13	23 µM (inactive)	14.3 µM (inactive)	9.25 µM (inactive)	30.9 µM (inactive)	50 µM (inactive)	> 100 µM (inactive)	30.5 µM (inactive)	15.6 µM (inactive)	19.3 µM (inactive)	> 100 µM (inactive)	13.6 µM (inactive)	24.2 µM (inactive)	17.5 µM (inactive)	60.1 µM (inactive)	–	> 100 µM (inactive)	30.7 µM (inactive)	19.3 µM (inactive)	37.2 µM (inactive)
Cc1cc(N2CCCC2)c([N+](=O)[O-])cc1[N+](=O)[O-]	> 100 µM (inactive)	> 100 µM (inactive)	> 100 µM (inactive)	> 100 µM (inactive)	> 100 µM (inactive)	> 100 µM (inactive)	90.4 µM (inactive)	> 100 µM (inactive)	> 100 µM (inactive)	> 100 µM (inactive)	> 100 µM (inactive)	> 100 µM (inactive)	> 100 µM (inactive)	–	> 100 µM (inactive)	> 100 µM (inactive)	> 100 µM (inactive)	–	> 100 µM (inactive)
NC(=O)c1nnn(-c2ccccc2)c1O	> 100 µM (inactive)	> 100 µM (inactive)	> 100 µM (inactive)	> 100 µM (inactive)	> 100 µM (inactive)	0.1 µM (active)	> 100 µM (inactive)	> 100 µM (inactive)	> 100 µM (inactive)	> 100 µM (inactive)	> 100 µM (inactive)	> 100 µM (inactive)	–	> 100 µM (inactive)	> 100 µM (inactive)	> 100 µM (inactive)	> 100 µM (inactive)	> 100 µM (inactive)	> 100 µM (inactive)
